Experimental data taken from patent US8258130B2 (Sanofi, priority 2007, dated 2012).

Molecular target: human h-PGDS (Homo sapiens, UniProt O60760)
Experiment: Enzyme Immunoassay (EIA) method, inhibition of hematopoietic PGD2 synthase
Type: biochemical
Conditions: EIA assay, PGD2 formed from PGH2 by human h-PGDS
Description: Assay 2: Enzyme Immunoassay (EIA) Method
• a. Preparation of 0.1M K2HPO4/KH2PO4 buffer (pH 7.4) • Prepare 0.1 M KH2PO4 from 1M KH2PO4 (Sigma, Cat# P-8709) • Prepare 0.1 M K2HPO4 from powder of K2HPO4 (Fisher, BP363-500) • Mix 0.1 M K2HPO4 with 0.1 M KH2PO4 to adjust pH to 7.4. • b. Preparation of 0.5% γ-globulin • Add 0.1 g of γ-globulin (Sigma, Cat# G-5009) to 20 mL 0.1 M K2HPO4/KH2PO4 buffer (pH 7.4) and make 1-mL/vial aliquots and store in −80° C. • c. Preparation of 100 mM GSH • Add 307 mg of GSH (Sigma, Cat# G-6529) to 10 mL 0.1 M K2HPO4/KH2PO4 buffer (pH 7.4) and store at −80° C. • d. Preparation of Reaction buffer: • 198 mL of 0.1M K2HPO4/KH2PO4 buffer (pH 7.4) • 2 mM GSH—Prepared from 100 mM GSH • 0.4 g Glycerol • 2 mL of 0.5% γ-globulin • Add 0.4 g of glycerol and 2 mL of 0.5% γ-globulin to 198 mL of 0.1 M K2HPO4/KH2PO4 • buffer (pH7.4). • Add 0.4 mL of 100 mM GSH to 19.6 mL reaction buffer before the assay (enough for two 96-well plates). • e. Preparation of FeCl2/citric acid stopping solution: (8 mg/mL FeCl2, 0.1 M citric acid) • Add 40 mg fresh FeCl2 (IGN, Cat# 158046) to 5 mL 0.1 M citric acid (Sigma, Cat# C0759). • f. Preparation of MOX reagent: • 10% EtOH—Add 1 mL of EtOH to 9 mL of ultra pure H2O • Dissolve 0.1 g of methoxyl amine (Cayman, Cat# 400036/) in 10% EtOH (10 mL). • Add 0.82 g of sodium acetate (Cayman, Cat#400037) to MOX solution and dissolve. II. Materials and Method • Dimethylsulfoxide (DMSO; Sigma; Cat# D2650) • Prostaglandin D2-MOX express EIA kit (Caymen Chemical, Catalog No. 500151)
Before the assay, cool down 10 mL of acetone in polypropylene tubes and empty 96 well plates in ice. All the procedures except compound dilution are performed on ice.
• 1. Dilute compound in DMSO
• 2. Dilute 2 μL of each above concentration of compound to 38 μL of reaction buffer in 96-well plates and mix. IV. Enzyme and Substrate Solution Preparation • 1 Preparation of 0.39 ng/μL enzyme solution (0.35 ng/μL at final after compound addition). • Mix 4 μL of 4 mg/mL human h-PGDS with 396 μL of reaction buffer (to give enzyme concentration 40 μg/mL). Add 46.8 μL of 40 μg/mL h-PGDS to 4.753 mL of reaction buffer to give a total volume of 4.8 mL • 2. Preparation of Substrate Solution (PGH2): Add 0.375 mL of 0.1 mg/mL of PGH2 to 1.625 mL acetone. V. Enzyme Reaction: • 1. Add 60 μL of enzyme solution to compound well and positive control (without compound) in U-bottom polypropylene plate on ice. • 2. Add 60 μL of reaction buffer and 6.6 μL of 5% DMSO in reaction buffer into negative control wells in the plate. • 3. Add 6.6 μL of diluted compound in reaction buffer to the compound wells and mix. • 4. Add 6.6 μL of 5% DMSO in reaction buffer to the positive control well. • 5. Incubate the plate in ice for at least 30 min. • 6. Add 20 μL of substrate (PGH2) solution to compound, negative and positive control wells in the U-bottom 96 well plate on ice. • 7. Dry the plate in cold room for about 25-28 min. • 8. Pipette 45 μL of enzyme solution (above) into 96-wells with dried PGH2 and mix 3 times. Incubate on the ice for 1 min. • 9. Add 45 μL of FeCl2 solution into each wells and mix. • 10. Add 90 μL of MOX solution and mix. • 11. Incubate for 30 min at 60° C. • 12. Dilute the samples 2500× with EIA buffer. VI. EIA Assay • Perform the assay according to the procedure in EIA kit provided by Cayman. Total PGD2 levels (pg/mL) were determined in the samples by EIA kits (Caymen Chemical, Catalog No. 500151) Calculate Amount of PGD2 as Below • Calculated % Positive control according to the equation below; % Positive control=(Compound value−Negative control)/(Positive value−Negative control value)×100. […]

Chain of human h-PGDS (O60760 whole entry): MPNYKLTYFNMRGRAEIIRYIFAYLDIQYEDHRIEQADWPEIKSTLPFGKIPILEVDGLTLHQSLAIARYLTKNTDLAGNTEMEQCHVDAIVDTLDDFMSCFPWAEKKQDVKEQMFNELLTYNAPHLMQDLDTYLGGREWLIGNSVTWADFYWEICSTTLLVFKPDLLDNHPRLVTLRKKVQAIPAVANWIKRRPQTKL

SMILES	IC50 [nM]
O=C(NN1CCOCC1)c1cnc(C(=O)c2ccccc2)nc1 [Example 50, 2-Benzoyl-pyrimidine-5-carboxylic acid morpholin-4-ylamide]	342
O=C(NN1CCCCC1)c1cnc(-c2cccc(F)c2)nc1 [Example 92, 2-(3-Fluoro-phenyl)-pyrimidine-5-carboxylic acid piperadin-1-yl-amide]	19.5
O=C(NN1CCOCC1)c1cnc(Oc2ccccc2)nc1 [Example 58, 2-Phenyoxy-pyrimidine-5-carboxylic acid N′-morpholin-4-yl-amide]	227
O=C(Nn1cnnc1)c1cnc(-c2ccccc2)nc1 [Example 43, 2-Phenyl-pyrimidine-5-carboxylic acid [1,2,4]triazol-4-ylamide]	263
Cc1nc(-c2ncc(C(=O)NN3CCN(CCO)CC3)cn2)no1 [Example 48, 2-(5-Methyl-[1,2,4]oxadiazol-3-yl)-pyrimidine-5-carboxylic acid [4-(2-hydroxy-ethyl)-piperazin-1-yl]-amide]	461
COc1cccc(-c2ncc(C(=O)NN3CC(C)=NNC3=O)cn2)c1 [Example 59, 2-(3-Methoxy-phenyl)-pyrimidine-5-carboxylic acid (6-methyl-3-oxo-2,5-dihydro-3H-[1,2,4]triazin-4-yl)-amide]	175
O=C(Nn1ccc2c(F)cccc21)c1cnc(-c2cccc(F)c2)nc1 [Example 31, 2-(3-Fluorophenyl)pyrimidine-5-carboxylic acid-(4-fluoroindol-1-yl)amide]	11
O=C(NN1CC(CN2CCOCC2)OC1=O)c1cnc(-c2ccccc2)nc1 (centres unmarked) [Example 75, 2-Phenyl-pyrimidine-5-carboxylic acid (5-morpholin-4-ylmethyl-2-oxo-oxazolidin-3-yl)-amide]	20
O=C(NN1CCc2ccccc21)c1cnc(-c2cccc(F)c2)nc1 [Example 91, 2-(3-Fluoro-phenyl)-pyrimidine-5-carboxylic acid (2,3-dihydro-indol-1-yl)-amide]	3
O=C(NN1CCOC1=O)c1cnc(-c2ccccc2)nc1 [Example 77, 2-Phenyl-pyrimidine-5-carboxylic acid (2-oxo-oxazolidin-3-yl)-amide]	49
O=C(NN1CCCCC1=O)c1cnc(-c2ccccc2)nc1 [Example 56, 2-Phenyl-pyrimidine-5-carboxylic acid N′-(2-oxo-piperidin-1-yl)-amide]	55
CN(NC(=O)c1cnc(-c2ccccc2)nc1)C1CCCCC1 [Example 57, 2-Phenyl-pyrimidine-5-carboxylic acid N′-cyclohexyl-N′-methyl-hydrazide]	147

Second part, the compound after the results:

IC50 [nM]	SMILES
13	Cc1nc(-c2ccccn2)ncc1C(=O)Nn1ccc2ncccc21 [Example 127, 4-Methyl-2-pyridin-2-yl-pyrimidine-5-carboxylic acid pyrrolo[3,2-b]pyridin-1-ylamide]
2	Cc1nc(-c2cccc(F)c2)ncc1C(=O)Nn1cc(C)c2ncccc21 [Example 197, 2-(3-Fluoro-phenyl)-4-methyl-pyrimidine-5-carboxylic acid (3-methyl-pyrrolo [32-b]pyridin-1-yl)-amide]
3	Cc1nc(-c2ccccn2)ncc1C(=O)NN1CCc2ccccc21 [Example 110, 4-Methyl-2-pyridin-2-yl-pyrimidine-5-carboxylic acid (2,3-dihydro-indol-1-yl)-amide]
8	CCc1cn(NC(=O)c2cnc(-c3ncccn3)nc2C)c2ccc(C(F)(F)F)cc12 [Example 176, 4-Methyl-[2,2′]bipyrimidinyl-5-carboxylic acid (3-ethyl-5-trifluoromethyl-indol-1-yl)-amide]
7	Cc1nc(-c2cccc(F)c2)ncc1C(=O)Nn1cc(C(C)(C)C(=O)O)c2cc(F)ccc21 [Example 164, 2-(5-Fluoro-1-{[2-(3-fluoro-phenyl)-4-methyl-pyrimidine-5-carbonyl]-amino}-1H-indol-3-yl)-2-methyl-propionic acid]
21	CC1=NNC(=O)N(NC(=O)c2cnc(-c3cccc(O)c3)nc2)C1 [Example 154, 2-(3-Hydroxy-phenyl)-pyrimidine-5-carboxylic acid (6-methyl-3-oxo-2,5-dihydro-3H-[1,2,4]triazin-4-yl)-amide]
14	Cc1nc(-c2cccnc2)ncc1C(=O)Nn1ccc2ncccc21 [Example 130, 4-Methyl-2-pyridin-3-yl-pyrimidine-5-carboxylic acid pyrrolo[3,2-b]pyridin-1-ylamide]
8	CS(=O)(=O)c1ccc2ccn(NC(=O)c3cnc(-c4cccc(F)c4)nc3)c2c1 [Example 113, 2-(3-Fluoro-phenyl)-pyrimidine-5-carboxylic acid (6-methanesulfonyl-indol-1-yl)-amide]
7	CCc1cn(NC(=O)c2cnc(-c3cccc(F)c3)nc2C)c2cnccc12 [Example 195, 2-(3-Fluoro-phenyl)-4-methyl-pyrimidine-5-carboxylic acid (3-ethyl-pyrrolo[2,3c]pyridin-1-yl)-amide]
17	Cc1nc(-c2ccccn2)ncc1C(=O)Nn1ccc2cc(F)ccc21 [Example 123, 4-Methyl-2-pyridin-2-yl-pyrimidine-5-carboxylic acid (5-fluoro-indol-1-yl)-amide]
5	Cc1nc(-c2nccs2)ncc1C(=O)Nn1cc(CCC(C)(C)O)c2cc(F)ccc21 [Example 172, 4-Methyl-2-thiazol-2-yl-pyrimidine-5-carboxylic acid [5-fluoro-3-(3-hydroxy-3-methyl-butyl)-indol-1-yl]-amide]
5	O=C(Nn1ccc2ccccc21)c1cnc(-c2cccc(F)c2)nc1 [Example 105, 2-(3-Fluoro-phenyl)-pyrimidine-5-carboxylic acid indol-1-yl-amide]
6	Cc1cc2ccccc2n1NC(=O)c1cnc(-c2cccc(F)c2)nc1 [Example 108, 2-(3-Fluoro-phenyl)-pyrimidine-5-carboxylic acid (2-methyl-indol-1-yl)-amide]
18	O=C(Nn1ccc2ncccc21)c1cnc(-c2cccc(F)c2)nc1 [Example 118, 2-(3-Fluoro-phenyl)-pyrimidine-5-carboxylic acid pyrrolo[3,2-b]pyridin-1-ylamide]
3	O=C(Nn1ccc2cc(F)ccc21)c1cnc(-c2ccccc2)nc1 [Example 102, 2-Phenyl-pyrimidine-5-carboxylic acid (5-fluoro-indol-1-yl)-amide]
851	Cc1nc(-c2cccc[n+]2[O-])ncc1C(=O)Nn1cc(C)c2cc(F)ccc21 [Example 225, 4-Methyl-2-(1-oxy-pyridin-2-yl)-pyrimidin-5-carboxylic acid (5-fluoro-3-methyl-indol-1-yl)-amide]
10	Cc1nc(-c2cccc(F)c2)ncc1C(=O)Nn1ccc2ccccc21 [Example 109, 2-(3-Fluoro-phenyl)-4-methyl-pyrimidine-5-carboxylic acid indol-1-ylamide]
